# Source: US8722662B2, “Heterocyclic compounds” (Takeda Pharmaceutical Company Limited, priority 2010, dated 2014)
# Counter-ions that a name gives are not always drawn.
# Experiments:
# [1] = test system: SD female rats; assay: Measurement of urethral resistance increasing effect (leak point pressure), intravenous administration; format: in vivo; conditions: rat, 0.3 mg/kg and 1.0 mg/kg, 10 min after administration, compared to vehicle (Williams' test)
# Experimental: Experimental Example 4 Measurement of Urethral Resistance Increasing Effect
# The urethral resistance increasing effect in rat was measured by a modified method of Matsumoto et al. (WO2009/063992) as follows. That is, SD female rats (CLEA Japan, Inc.) were anesthetized with isoflurane (1.0%; Abbott), and the spinal cord was transected at Th8-9 to avoid the voiding reflex. After laparotomy, an intravesical pressure measurement catheter and a saline infusion catheter (PE-100; Clay Adams) were inserted into the bladder. Thereafter, the abdomen of the rat was closed with aronalpha A “Sankyo” (Daiichi Sankyo). […] The intravesical pressure measurement catheter was connected to a computer via a pressure transducer (REF685640; Nihon Koden), an amplifier (RPM-6008M; Nihon Koden), and a multi-channel data analyzer (MP150; Biopack), and changes in the intravesical pressure were recorded on a hard disc at a frequency of 100 samples/sec. […] The LPP value (Pre value) was measured, a drug was intravenously administered, and the measurement of LPP value (Post value) was again started 10 min after administration. […]
# The compound of Example 6 (0.3 mg/kg), the compound of Example 6 (1.0 mg/kg) and the vehicle were administered to the rats, and the urethral resistance increasing effect was measured by the aforementioned method.
# [2] = target: human norepinephrine transporter (Homo sapiens, UniProt P23975); assay: Inhibitory action on human norepinephrine transporter ([3H]-norepinephrine uptake in CHO cells); format: cell-based; conditions: relative to inhibitory activity of 10 μM DMI as 100%, read-out: inhibitory rate (%)
# Source text: (§1) Human serotonin transporter cDNA was amplified from human brain cDNA library by PCR, and inserted into pCRII-TOPO vector (manufactured by Invitrogen). The base sequence was confirmed and modified, and subcloned to pcDNA3.1 vector (manufactured by Invitrogen), whereby a human serotonin transporter expression plasmid was constructed. Human norepinephrine transporter cDNA was purchased from Invitrogen, and the base sequence was confirm and modified, and subcloned to pcDNA3.1 vector, whereby a human norepinephrine transporter expression plasmid was constructed. […]
# (§2) The cultured cells that reached almost confluent were rinsed with PBS (Invitrogen), detached with Trypsin/EDTA (Invitrogen), and collected by a centrifugal operation. The obtained cells were counted, and diluted to 3×10^5 cells per 1 mL medium, and the mixture was dispensed to a 96 well white plate (Corning) at 100 μL per well, and cultured overnight in a CO2 incubator.
# (§3) Then, an assay buffer (126 mM NaCl, 4.95 mM KCl, 1.26 mM KH2PO4, 1.26 mM MgSO4, 10 mM HEPES, 2.32 mM CaCl2, 5.52 mM Glucose, 0.5% BSA) was prepared, the medium in the cell plate was removed and the assay buffer was added by 80 μL. […] The radioactivity was measured by TopCount (PerkinElmer). […]
# [3] = target: T1, human dopamine transporter (Homo sapiens, UniProt Q01959); assay: Inhibitory action on human dopamine transporter ([3H]-dopamine uptake in CHO cells); format: cell-based; conditions: relative to inhibitory activity of 100 μM Nomifensine as 100%, read-out: inhibitory rate (%)
# T1 construct: expressed in transfected cells
# Source text: (1) Construction of Human Dopamine Transporter Expression Plasmid
# SRα promoter contained in pTB1411 described in JP-A-H5-076385 was cleaved with restriction enzyme HindIII (manufactured by TAKARA BIO INC.), blunt-ended, further cleaved with restriction enzyme EcoRI (manufactured by TAKARA BIO INC.), and fragmented. On the other hand, pCI vector was cleaved with restriction enzyme BglII (manufactured by TAKARA BIO INC.), blunt-ended with T4 DNA polymerase, and further cleaved with restriction enzyme EcoRI (manufactured by TAKARA BIO INC.). Into this site was inserted an SRα promoter fragment to give pCI-SRa. […]
# as §2, with “One day before the assay, the cultured” for “The cultured”
# as §3, with “On the day of the test,” for “Then,”
# [4] = target: T2, human serotonin transporter (Homo sapiens, UniProt P31645); assay: Inhibitory action on human serotonin transporter ([3H]-5-hydroxytryptamine uptake in CHO cells); format: cell-based; conditions: relative to inhibitory activity of 10 μM Paroxetine as 100%, read-out: inhibitory rate (%)
# T2 construct: expressed in transfected cells
# Source text: (2) Preparation of Human Monoamine Expressing Cell
# as §1
# as §2, with “medium,” for “medium, and”
# as §3
# T1 sequence (Q01959 whole entry): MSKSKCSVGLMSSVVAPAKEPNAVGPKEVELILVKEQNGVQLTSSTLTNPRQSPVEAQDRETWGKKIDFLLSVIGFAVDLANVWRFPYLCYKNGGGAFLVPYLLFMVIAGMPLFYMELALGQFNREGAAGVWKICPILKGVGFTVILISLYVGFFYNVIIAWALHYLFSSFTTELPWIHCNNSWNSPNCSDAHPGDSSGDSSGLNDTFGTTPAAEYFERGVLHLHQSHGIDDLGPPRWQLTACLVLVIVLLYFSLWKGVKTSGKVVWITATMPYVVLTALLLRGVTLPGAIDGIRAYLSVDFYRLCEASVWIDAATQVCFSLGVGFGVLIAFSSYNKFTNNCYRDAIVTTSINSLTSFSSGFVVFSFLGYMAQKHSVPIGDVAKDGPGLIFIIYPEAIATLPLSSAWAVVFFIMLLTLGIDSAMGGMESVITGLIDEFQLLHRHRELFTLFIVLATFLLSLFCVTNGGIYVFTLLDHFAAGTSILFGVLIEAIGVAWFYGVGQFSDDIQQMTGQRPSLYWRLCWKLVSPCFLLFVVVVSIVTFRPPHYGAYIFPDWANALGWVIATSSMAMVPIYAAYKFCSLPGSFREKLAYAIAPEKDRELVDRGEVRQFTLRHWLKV
# Sequence of human norepinephrine transporter (P23975 whole entry): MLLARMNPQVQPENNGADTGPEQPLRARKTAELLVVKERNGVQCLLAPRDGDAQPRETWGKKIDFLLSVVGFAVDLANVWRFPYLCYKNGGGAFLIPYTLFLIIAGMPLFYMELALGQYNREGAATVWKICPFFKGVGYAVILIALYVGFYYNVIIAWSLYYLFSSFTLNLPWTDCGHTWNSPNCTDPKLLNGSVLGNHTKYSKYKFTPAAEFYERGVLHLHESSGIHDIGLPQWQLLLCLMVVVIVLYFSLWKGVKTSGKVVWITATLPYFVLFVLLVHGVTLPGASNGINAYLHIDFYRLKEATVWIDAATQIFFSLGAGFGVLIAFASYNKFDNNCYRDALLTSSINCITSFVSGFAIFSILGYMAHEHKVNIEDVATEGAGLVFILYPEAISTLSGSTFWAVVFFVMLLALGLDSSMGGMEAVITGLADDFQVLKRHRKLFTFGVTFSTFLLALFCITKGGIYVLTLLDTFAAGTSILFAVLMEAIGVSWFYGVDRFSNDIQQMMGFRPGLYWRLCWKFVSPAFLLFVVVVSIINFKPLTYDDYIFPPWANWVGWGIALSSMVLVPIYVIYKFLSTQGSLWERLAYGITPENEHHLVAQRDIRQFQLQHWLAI
# T2 sequence (P31645 whole entry): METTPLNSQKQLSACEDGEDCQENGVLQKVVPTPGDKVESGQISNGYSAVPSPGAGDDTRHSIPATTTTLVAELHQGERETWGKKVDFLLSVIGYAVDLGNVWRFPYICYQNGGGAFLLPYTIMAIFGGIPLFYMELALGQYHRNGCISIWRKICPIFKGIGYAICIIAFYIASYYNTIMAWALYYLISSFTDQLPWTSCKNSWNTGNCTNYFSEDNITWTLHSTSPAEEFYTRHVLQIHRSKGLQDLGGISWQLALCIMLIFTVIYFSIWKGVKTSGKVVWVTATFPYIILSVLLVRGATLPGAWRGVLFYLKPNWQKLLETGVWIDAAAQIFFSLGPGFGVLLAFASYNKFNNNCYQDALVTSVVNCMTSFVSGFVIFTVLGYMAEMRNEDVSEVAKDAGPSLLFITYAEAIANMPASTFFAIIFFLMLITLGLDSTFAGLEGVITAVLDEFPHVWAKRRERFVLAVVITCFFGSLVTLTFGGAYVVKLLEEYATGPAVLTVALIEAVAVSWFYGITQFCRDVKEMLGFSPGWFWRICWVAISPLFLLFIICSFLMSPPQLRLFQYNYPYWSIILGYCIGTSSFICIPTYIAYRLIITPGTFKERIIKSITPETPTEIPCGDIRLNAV
SMILES,urethral resistance increasing effect (LPP Post value minus Pre value) [1],inhibition at 1 µM ([2]; compound 1 μM),inhibition at 10 µM ([2]; compound 10 μM),inhibition at 1 µM ([3]; compound 1 μM),inhibition at 10 µM ([3]; compound 10 μM),inhibition at 1 µM ([4]; compound 1 μM),"inhibition at 10 µM ([4]; compound 10 μM, CHO cells expressing human serotonin transporter)"
"CC(=O)NC[C@H]1CNCCO[C@@H]1c1ccc(Cl)c(Cl)c1 (racemic) [Example 6, N-{[(6RS,7SR)-7-(3,4-dichlorophenyl)-1,4-oxazepan-6-yl]methyl}acetamide monohydrochloride]",dose-dependent and significant urethral resistance increasing effect,–,–,–,–,–,–
"OC[C@H]1NCCOC[C@@H]1c1ccc(Cl)c(Cl)c1 (racemic) [Example 14, [(5RS,6SR)-6-(3,4-dichlorophenyl)-1,4-oxazepan-5-yl]methanol monohydrochloride]",–,98%,100%,87%,99%,31%,79%
